Patent publication US10266548B2, “Substituted benzylindazoles for use as Bub1 kinase inhibitors in the treatment of hyperproliferative diseases” (Bayer Intellectual Property GmbH, priority 2011, dated 2019)
Values joined by “and” are separate entries in the source; they are usually repeats but may differ in a detail not shown here. Equal entries are not always repeated. Structures can show the parent of a compound that is named as a salt. Where two headings read alike, the source gives them in different places.

Tests used:
[1] = target: catalytic domain of human Bub1 (amino acids 704-1085) (Homo sapiens (Human), UniProt O43683); experiment: Bub1 kinase assay (TR-FRET); format: biochemical; details: 10 μM ATP, 1 μM peptide substrate; read-out: Biological Assay 1: Bub1 kinase assay median IC50
Procedure, shortened: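 Phosphoserine product detected by TR-FRET (Eu-labeled anti-mouse IgG/anti-phosphoserine antibody to streptavidin-XL665) after 1 h at 22 °C. IC50 from 4-parameter logistic fit.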

[2] = tested on: HeLa cells; experiment: Proliferation assay (HeLa cell line); format: cell-based; details: read-out: Biological Assay 2: Proliferation assay (HeLa cell line) median IC50
[3] = Homo sapiens, 96 h, 4 days, crystal violet

Sequence of catalytic domain of human Bub1 (amino acids 704-1085) (O43683 704-1085): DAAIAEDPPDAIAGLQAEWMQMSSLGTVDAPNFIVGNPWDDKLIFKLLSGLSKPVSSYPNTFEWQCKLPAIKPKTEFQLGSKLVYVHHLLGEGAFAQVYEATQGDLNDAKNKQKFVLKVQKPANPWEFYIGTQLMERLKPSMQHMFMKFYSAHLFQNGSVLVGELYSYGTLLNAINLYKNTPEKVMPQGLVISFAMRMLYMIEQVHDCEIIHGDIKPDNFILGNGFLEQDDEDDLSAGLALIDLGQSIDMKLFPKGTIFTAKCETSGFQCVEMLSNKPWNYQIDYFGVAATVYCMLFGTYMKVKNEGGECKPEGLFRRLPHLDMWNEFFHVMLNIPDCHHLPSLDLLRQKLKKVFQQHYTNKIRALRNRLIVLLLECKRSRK

IC50 [1] | IC50 ([2]; 4 days, crystal violet) | IC50 [2, 3] | SMILES | IC50 ([2]; Homo sapiens, 96 h)
7.4 nM | 3200 nM |  | COc1cnc(-c2nn(Cc3c(Cl)ccc(CO)c3Cl)c3ccccc23)nc1Nc1ccncc1 [Example 8-1, [2,4-dichloro-3-({3-[5-methoxy-4-(pyridin-4-ylamino)pyrimidin-2-yl]-1H-indazol-1-yl}methyl)phenyl]methanol] | 
11 nM |  | ≥ 10000 nM | CNC(=O)c1ccc(Cn2nc(-c3ncc(OC)c(Nc4ccncc4)n3)c3ccccc32)c(Cl)c1 [Example 29-1, formic acid-3-chloro-4-({3-[5-methoxy-4-(pyridin-4-ylamino)pyrimidin-2-yl]-1H-indazol-1-yl}methyl)-N-methylbenzamide (1:1)] | 
17 nM |  | 9200 nM | N#Cc1cnccc1Nc1nc(-c2nn(Cc3ccccc3F)c3ccccc23)ncc1O [Example 26-1, 4-({2-[1-(2-fluorobenzyl)-1H-indazol-3-yl]-5-hydroxypyrimidin-4-yl}amino)pyridine-3-carbonitrile] | 
2800 nM | 3500 nM |  | COc1cnc(-c2nn(Cc3c(OCC(F)(F)F)cc(Br)cc3OCC(F)(F)F)c3ccccc23)nc1Nc1ccncc1 [Example 18-2] | 
8.9 nM | ≥ 10000 nM |  | CNC(=O)c1ccc(Cn2nc(-c3ncc(OC)c(Nc4ccncc4)n3)c3ccccc32)c(Cl)c1 [Example 29-2, 3-chloro-4-({3-[5-methoxy-4-(pyridin-4-ylamino)pyrimidin-2-yl]-1H-indazol-1-yl}methyl)-N-methylbenzamide] | 
20 nM |  | 2700 nM | CCOc1cc(F)c(Cn2nc(-c3nccc(N(C(=O)COCCOC)c4ccncc4)n3)c3ccccc32)c(F)c1 [Example 16-4, N-{2-[1-(4-ethoxy-2,6-difluorobenzyl)-1H-indazol-3-yl]pyrimidin-4-yl}-2-(2-methoxyethoxy) N-(pyridin-4-yl)acetamide] | 
28 nM |  | 3800 nM | C#Cc1ccc(Cn2nc(-c3ncc(OC)c(Nc4ccncc4)n3)c3ccccc32)c(F)c1 [Example 21-1, 2-[1-(4-ethynyl-2-fluorobenzyl)-1H-indazol-3-yl]-5-methoxy-N-(pyridin-4-yl)pyrimidin-4-amine] | 
3.9 nM |  | 3100 nM | COc1cnc(-c2nn(Cc3c(F)cc(C4CC4)cc3F)c3ccccc23)nc1Nc1ccncc1 [Example 6-1, 2-[1-(4-cyclopropyl-2,6-difluorobenzyl)-1H-indazol-3-yl]-5-methoxy-N-(pyridin-4-yl)pyrimidin-4-amine] | 
21 nM |  | 5500 nM | COc1cnc(-c2nn(Cc3cccc(CCO)c3)c3ccccc23)nc1Nc1ccncc1 [Example 8-2, 2-[3-({3-[5-methoxy-4-(pyridin-4-ylamino)pyrimidin-2-yl]-1H-indazol-1-yl}methyl)phenyl] ethanol] | 

The next lines start with the compound.

SMILES | IC50 [1] | IC50 ([2]; 4 days, crystal violet) | IC50 [2, 3] | IC50 ([2]; Homo sapiens, 96 h)
COc1cnc(-c2nn(Cc3c(Cl)ccc(C(C)(C)O)c3Cl)c3ccccc23)nc1Nc1ccncc1 [Example 9-3, 2-[2,4-dichloro-3-({3-[5-methoxy-4-(pyridin-4-ylamino)pyrimidin-2-yl]-1H-indazol-1-yl}methyl)phenyl] propan-2-ol] | 23 nM |  |  | 7000 nM
COc1cnc(-c2nn(Cc3ccccc3Cl)c3ccccc23)nc1Nc1ccncc1 [Example 2-10-1, 2-[1-(2-chlorobenzyl)-1H-indazol-3-yl]-5-methoxy-N-(pyridin-4-yl)pyrimidin-4-amine] | 6.7 nM |  |  | ≥ 10000 nM
CCOC(=O)C(C)(C)c1cccc(Cn2nc(-c3ncc(OC)c(Nc4ccncc4)n3)c3ccccc32)c1 [Example 2-41-1, ethyl 2-[3-({3-[5-methoxy-4-(pyridin-4-ylamino)pyrimidin-2-yl]-1H-indazol-1-yl}methyl)phenyl]-2-methylpropanoate] | 150 nM |  |  | 7900 nM
COc1cnc(-c2nn(Cc3cc(C)c(C)cc3Cl)c3ccccc23)nc1Nc1ccncc1 [Example 2-3-1, 2-[1-(2-chloro-4,5-dimethylbenzyl)-1H-indazol-3-yl]-5-methoxy-N-(pyridin-4-yl)pyrimidin-4-amine] | 4.4 nM |  | 3000 nM | 
COc1ccc(Cn2nc(-c3ncc(OC)c(Nc4ccncc4)n3)c3ccccc32)c(Cl)c1 [Example 2-6-1, 2-[1-(2-chloro-4-methoxybenzyl)-1H-indazol-3-yl]-5-methoxy-N-(pyridin-4-yl)pyrimidin-4-amine] | 4.7 nM |  | 3800 nM | 
COc1cnc(-c2nn(Cc3c(Cl)ccc(C)c3F)c3ccccc23)nc1Nc1ccncc1 [Example 2-1-1, 2-[1-(6-chloro-2-fluoro-3-methylbenzyl)-1H-indazol-3-yl]-5-methoxy-N-(pyridin-4-yl)pyrimidin-4-amine] | 2.6 nM |  | 3800 nM | 
COc1cnc(-c2nn(Cc3ccc(Cl)cc3Cl)c3ccccc23)nc1Nc1ccncc1 [Example 2-19-1, 2-[1-(2,4-dichlorobenzyl)-1H-indazol-3-yl]-5-methoxy-N-(pyridin-4-yl)pyrimidin-4-amine] | 10 nM |  | 3400 nM | 
O=C(O)c1cnccc1Nc1nc(-c2nn(Cc3ccccc3F)c3ccccc23)ncc1OCCO [Example 33-1, 4-({2-[1-(2-fluorobenzyl)-1H-indazol-3-yl]-5-(2-hydroxyethoxy)pyrimidin-4-yl}amino)pyridine-3-carboxylic acid hydrochloride (1:1)] | 11 nM |  |  | ≥ 10000 nM
COc1cnc(-c2nn(Cc3ccc(F)cc3)c3ccccc23)nc1Nc1ccncc1 [Example 2-36-1, 2-[1-(4-fluorobenzyl)-1H-indazol-3-yl]-5-methoxy-N-(pyridin-4-yl)pyrimidin-4-amine] | 58 nM |  | ≥ 10000 nM | 
COc1cnc(-c2nn(Cc3c(F)c(F)c(OCC(F)(F)F)c(F)c3F)c3ccccc23)nc1Nc1ccncc1 [Example 2-15-1, 5-methoxy-N-(pyridin-4-yl)-2-{1-[2,3,5,6-tetrafluoro-4-(2,2,2-trifluoroethoxy)benzyl]-1H-indazol-3-yl}pyrimidin-4-amine] | 38 nM |  | 4700 nM | 
COc1cnc(-c2nn(Cc3ccc(S(=O)(=O)NC4CC4)cc3)c3ccccc23)nc1Nc1ccncc1 [Example 2-37-1, N-cyclopropyl-4-({3-[5-methoxy-4-(pyridin-4-ylamino)pyrimidin-2-yl]-1H-indazol-1-yl}methyl)benzenesulfonamide] | 71 nM |  | ≥ 10000 nM | 
COCc1noc(COc2cnc(-c3nn(Cc4ccccc4F)c4ccccc34)nc2Nc2ccncc2)n1 [Example 4-13, 2-[1-(2-fluorobenzyl)-1H-indazol-3-yl]-5-{[3-(methoxymethyl)-1,2,4-oxadiazol-5-yl]methoxy}-N-(pyridin-4-yl)pyrimidin-4-amine] | 76 nM and 7.6 nM |  |  | 8000 nM
Fc1ccccc1Cn1nc(-c2ncc(OCCc3nnn[nH]3)c(Nc3ccncc3)n2)c2ccccc21 [Example 4-5-1, 2-[1-(2-fluorobenzyl)-1H-indazol-3-yl]-N-(pyridin-4-yl)-5-[2-(1H-tetrazol-5-yl)ethoxy] pyrimidin-4-amine] | 18 nM |  | ≥ 10000 nM | 
COc1ccc(Cn2nc(-c3ncc(OC)c(Nc4ccnc(F)c4)n3)c3ccccc32)cc1 [Example 34-1, N-(2-fluoropyridin-4-yl)-5-methoxy-2-[1-(4-methoxybenzyl)-1H-indazol-3-yl]pyrimidin-4-amine] | 230 nM |  |  | ≥ 10000 nM
COc1ccc(Cn2nc(-c3ncc(OC)c(Nc4ccncc4C(F)(F)F)n3)c3ccccc32)cc1 [Example 27-1, 5-methoxy-2-[1-(4-methoxybenzyl)-1H-indazol-3-yl]-N-[3-(trifluoromethyl)pyridin-4-yl]pyrimidin-4-amine] | 55 nM |  |  | 3900 nM
COc1cnc(-c2nn(Cc3ccc(I)cc3Cl)c3ccccc23)nc1Nc1ccncc1 [Example 2-28-1, 2-[1-(2-chloro-4-iodobenzyl)-1H-indazol-3-yl]-5-methoxy-N-(pyridin-4-yl)pyrimidin-4-amine] | 22 nM |  |  | 8100 nM
COc1cnc(-c2nn(Cc3ccc(F)c(OC)c3Cl)c3ccccc23)nc1Nc1ccncc1 [Example 2-13-1, 2-[1-(2-chloro-4-fluoro-3-methoxybenzyl)-1H-indazol-3-yl]-5-methoxy-N-(pyridin-4-yl)pyrimidin-4-amine] | 8 nM |  | 3800 nM | 
COc1cnc(-c2nn(Cc3c(F)ccc(C)c3F)c3ccccc23)nc1Nc1ccncc1 [Example 2-48-1, 2-[1-(2,6-difluoro-3-methylbenzyl)-1H-indazol-3-yl]-5-methoxy-N-(pyridin-4-yl)pyrimidin-4-amine] | 5.5 nM |  |  | ≥ 10000 nM
COc1cnc(-c2nn(Cc3ccc(C(=O)OC(C)(C)C)cc3Cl)c3ccccc23)nc1Nc1ccncc1 [Example 2-40-1, tert-butyl 3-chloro-4-({3-[5-methoxy-4-(pyridin-4-ylamino)pyrimidin-2-yl]-1H-indazol-1-yl}methyl)benzoate] | 120 nM |  | 5600 nM | 
COc1cnc(-c2nn(Cc3c(F)cc(C(C)=O)cc3F)c3ccccc23)nc1Nc1ccncc1 [Example 7-1, 1-[3,5-difluoro-4-({3-[5-methoxy-4-(pyridin-4-ylamino)pyrimidin-2-yl]-1H-indazol-1-yl}methyl)phenyl]ethanone] | 3 nM |  |  | 4400 nM
COc1cnc(-c2nn(Cc3c(Cl)cc(OC(F)(F)F)cc3Cl)c3ccccc23)nc1N(Cc1c(Cl)cc(OC(F)(F)F)cc1Cl)c1ccncc1 [Example 2-26-2, N-[2,6-dichloro-4-(trifluoromethoxy)benzyl]-2-{1-[2,6-dichloro-4-(trifluoromethoxy)benzyl]-1H-indazol-3-yl}-5-methoxy-N-(pyridin-4-yl)pyrimidin-4-amine] | 840 nM |  | 2900 nM | 
COc1cnc(-c2nn(Cc3c(Cl)ccc(C(=O)N(C)C)c3Cl)c3ccccc23)nc1Nc1ccncc1 [Example 20-3, 2,4-dichloro-3-({3-[5-methoxy-4-(pyridin-4-yla-mino)pyrimidin-2-yl]-1H-indazol-1-yl}methyl)-N,N-dimethyl-benzamide] | 1200 nM |  |  | 4100 nM
